Publication PMC9253031, “Redox-sensitive doxorubicin liposome: a formulation approach for targeted tumor therapy” (Scientific Reports, 2022)

Tests used:
[1] = system: C26 tumor; assay: Anti-tumor efficacy and survival in mice bearing C26 colon cancer; conditions: single i.v. dose 10 mg/kg Dox
[2] = system: NIH-3T3 cell line (mouse embryonic fibroblast cells); assay: MTT cytotoxicity, NIH-3T3 cells; type: cell-based; conditions: 48 h treatment
Protocol: (§1) C26 and NIH-3T3 cell lines were cultured at 37 °C in a 5% CO2/95% air humidified atmosphere in RPMI 1640 and DEMEM media, respectively; the media were supplemented with 10% FCS and 100 U/mL penicillin, and 100 μg/mL streptomycin.
(§2) C26 and NIH-3T3 cells were seeded at 5000 cells/well into 96-well plates. […] After 48 h incubation at 37 °C, the cells were washed with PBS and MTT (10 μL/well MTT and 100 μL/well cell media) was added. After an additional incubation for 4 h at 37 °C, the absorbance of MTT was measured using a microplate reader (Awareness Technology Inc., USA) at 570 nm. Relative cell death (R) was calculated as follows:
(§3) R = 1 − [(A sample − A blank)/(A control − A blank)], where A sample and A control are the absorbances of the cells incubated with the sample solutions and the culture medium as the control group, respectively. A blank is the absorbance of MTT solution in a well without cells. The IC50 values were calculated using CalcuSyn Version 2.0 software (BIOSOFT, UK)[52].

[3] = Plasma Dox concentration and pharmacokinetics after i.v. administration; type: in vivo, BALB/c mice; conditions: Dox 10 mg/kg, mice
[4] = system: C26 cell line (murine colon carcinoma cells); assay: MTT cytotoxicity, C26 cells; type: cell-based, mouse; conditions: 48 h treatment
Protocol: as §1, §2, §3

[5] = system: C26 cells; assay: Dox cellular uptake by spectrofluorometry; type: cell-based, mouse; conditions: 1 and 3 h incubation, compared to Caelyx
Protocol: C26 cells were seeded at 1 × 10^6 cells/well in 6-well plates and incubated overnight. […] After 1 and 3 h of incubation at 37 °C, cells were washed with cold PBS. Then, acidified isopropyl alcohol (0.9 mL) was added to each well and transferred to a 2 mL vial and stored at 4 °C for 24 h. Samples were centrifuged for 10 min at 14,000 rpm.

| SMILES | melting point [°C] | MST (median survival time) [1] [days] | TGD (tumor growth delay) [1] [%] | TTE (time to reach end point) ± SD ([1]; C26 tumor, BALB/c mice, listed as Dox.HCl, 10 mg/kg) [days] | IC50 (NIH) 48 h [2] [µg/mL] | AUC (total area under the plasma concentration-time curve) [3] [ng·h/mL] | Cl (clearance) [3] | IC50 (C26) 48 h [4] [µg/mL] | Cellular uptake of Dox (spectrofluorometry) [5] |
| --- | --- | --- | --- | --- | --- | --- | --- | --- | --- |
| O=C(O)CCCCCCCCC[Se][Se]CCCCCCCCCC(=O)O | 82 |  |  |  |  |  |  |  |  |
| COc1cccc2c1C(=O)c1c(O)c3c(c(O)c1C2=O)C[C@@](O)(C(=O)CO)C[C@@H]3O[C@H]1C[C@H](N)[C@H](O)[C@H](C)O1.Cl [Dox, Doxorubicin hydrochloride] |  | 33.10 | 10.12 | 32.40 ± 5.94 | 0.042 ± 0.013 | 7200 | 1.38 (mg)/(μg/mL)/h | 0.01 ± 0.010 | highest cellular uptake |
